Literature values in US9624258B2, “Polymorph of regadenoson” (Biophore India Pharmaceuticals PVT. Ltd., priority 2013, dated 2017).

How the values were obtained:
[1] = background statement
A2A adenosine receptor = A2A adenosine receptor (Homo sapiens, UniProt P29274); details: background statement on compound of U.S. Pat. No. 6,403,567
A2A adenosine receptor, sequence (P29274 whole entry): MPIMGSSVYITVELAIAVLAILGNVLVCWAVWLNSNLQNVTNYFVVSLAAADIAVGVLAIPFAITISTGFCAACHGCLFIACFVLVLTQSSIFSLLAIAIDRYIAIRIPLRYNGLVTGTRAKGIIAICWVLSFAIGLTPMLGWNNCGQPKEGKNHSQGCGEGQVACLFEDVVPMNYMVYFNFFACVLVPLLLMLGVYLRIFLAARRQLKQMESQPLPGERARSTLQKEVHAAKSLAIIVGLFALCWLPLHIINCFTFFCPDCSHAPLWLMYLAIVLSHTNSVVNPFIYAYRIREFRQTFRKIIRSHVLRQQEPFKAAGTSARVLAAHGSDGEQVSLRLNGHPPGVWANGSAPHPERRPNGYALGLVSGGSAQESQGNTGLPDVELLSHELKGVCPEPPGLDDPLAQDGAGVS

CNC(=O)c1cnn(-c2nc(N)c3ncn([C@@H]4O[C@H](CO)[C@@H](O)[C@H]4O)c3n2)c1 [Regadenoson, (1-{9-[(4S,2R,3R,5R)-3,4-dihydroxy-5-(hydroxymethyl)oxolan-2-yl)-6-aminopurin-2-yl}pyrazole-4-yl)-N-methylcarboxamide]
biological half-life [1]: 2- to 3 minute | A2A adenosine receptor agonist selectivity (A2A adenosine receptor): highly selective A2A adenosine receptor agonist
